30 molecules from ChEMBL document CHEMBL6153104, “Discovery of the first potent ROR1 degrader for the treatment of non-small cell lung cancer” (Eur J Med Chem, 2025) can be followed below.

In experiment [1] the target is T1, Protein cereblon/Inactive tyrosine-protein kinase transmembrane receptor ROR1 (Homo sapiens) (UniProt Q96SW2+Q01973). Nature of the experiment: PROTAC activity at CRBN/ROR1 in human NCI-H23 cells assessed as induction of ROR1 degradation at 0.1 uM incubated for 24 hrs by Western blot analysis relative to control. The experiment is classed as cell-based. (In western blotting, separated proteins are transferred to a membrane and probed.)

For experiment [2], the target named is T1, Protein cereblon/Inactive tyrosine-protein kinase transmembrane receptor ROR1 (Homo sapiens). Nature of the experiment: PROTAC activity at CRBN/ROR1 in human NCI-H23 cells assessed as induction of ROR1 degradation at 1 uM incubated for 24 hrs by Western blot analysis relative to control. It counts as cell-based.

T1 sequence (Q01973 whole entry, looked up): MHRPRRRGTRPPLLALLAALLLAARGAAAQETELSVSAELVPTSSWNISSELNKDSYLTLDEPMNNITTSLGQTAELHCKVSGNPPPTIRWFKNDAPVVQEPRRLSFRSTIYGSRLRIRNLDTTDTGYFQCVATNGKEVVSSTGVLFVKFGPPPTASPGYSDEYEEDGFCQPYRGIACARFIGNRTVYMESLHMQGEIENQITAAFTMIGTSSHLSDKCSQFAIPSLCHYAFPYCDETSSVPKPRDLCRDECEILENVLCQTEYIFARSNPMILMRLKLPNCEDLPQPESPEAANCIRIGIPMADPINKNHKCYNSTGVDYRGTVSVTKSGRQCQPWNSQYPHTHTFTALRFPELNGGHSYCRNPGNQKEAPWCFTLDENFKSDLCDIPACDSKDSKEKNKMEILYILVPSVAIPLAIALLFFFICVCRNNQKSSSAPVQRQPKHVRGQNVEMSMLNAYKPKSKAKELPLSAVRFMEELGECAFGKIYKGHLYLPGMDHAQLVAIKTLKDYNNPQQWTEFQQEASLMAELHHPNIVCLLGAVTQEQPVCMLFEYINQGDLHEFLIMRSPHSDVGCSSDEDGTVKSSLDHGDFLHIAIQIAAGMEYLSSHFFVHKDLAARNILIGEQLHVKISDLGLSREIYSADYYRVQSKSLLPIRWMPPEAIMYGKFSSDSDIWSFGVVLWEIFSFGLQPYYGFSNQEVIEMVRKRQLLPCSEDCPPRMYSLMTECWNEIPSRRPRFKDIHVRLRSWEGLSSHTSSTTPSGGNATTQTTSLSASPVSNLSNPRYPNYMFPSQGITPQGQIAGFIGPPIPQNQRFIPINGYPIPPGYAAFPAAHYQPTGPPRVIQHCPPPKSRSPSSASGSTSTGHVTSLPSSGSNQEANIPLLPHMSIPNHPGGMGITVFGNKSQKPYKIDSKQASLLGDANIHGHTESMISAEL
T1 sequence (Q96SW2 whole entry, looked up): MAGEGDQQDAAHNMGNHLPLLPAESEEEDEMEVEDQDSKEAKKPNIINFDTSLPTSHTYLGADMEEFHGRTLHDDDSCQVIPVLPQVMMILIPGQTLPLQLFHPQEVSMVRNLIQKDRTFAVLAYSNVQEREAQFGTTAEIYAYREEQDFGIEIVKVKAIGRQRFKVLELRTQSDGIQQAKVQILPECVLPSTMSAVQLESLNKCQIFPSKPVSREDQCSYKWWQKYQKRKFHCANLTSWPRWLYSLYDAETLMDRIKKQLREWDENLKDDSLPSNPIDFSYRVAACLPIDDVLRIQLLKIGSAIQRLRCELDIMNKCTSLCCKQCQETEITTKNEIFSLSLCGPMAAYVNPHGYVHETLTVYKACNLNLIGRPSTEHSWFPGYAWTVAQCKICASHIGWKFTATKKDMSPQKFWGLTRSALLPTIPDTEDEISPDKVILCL

Regarding `CCN1CCC(Nc2c(Br)cnc3[nH]c(-c4ccc(N5CCN(C(=O)CCCCCOc6cccc7c6C(=O)N(C6CCC(=O)NC6=O)C7=O)CC5)cc4)nc23)CC1` (stereo not given), the Activity in experiment [1] and in experiment [2] was 0% each time.
Consider `CCN1CCC(Nc2c(Br)cnc3[nH]c(-c4ccc(N5CCN(C(=O)CCCCCCCNc6ccc7c(c6)C(=O)N(C6CCC(=O)NC6=O)C7=O)CC5)cc4)nc23)CC1` (stereo not given), for which the Activity in experiment [1] was 30.5%; in experiment [2] it was 73.3%.
`CCN1CCC(Nc2c(Br)cnc3[nH]c(-c4ccc(N5CCN(CCOCCOCCNc6ccc7c(c6)C(=O)N(C6CCC(=O)NC6=O)C7=O)CC5)cc4)nc23)CC1` (stereo not given): the Activity in experiment [1] stood at 0%; in experiment [2], 88.7%.
For `CCN1CCC(Nc2c(Br)cnc3[nH]c(-c4ccc(N5CCN(CCCNc6ccc7c(c6)C(=O)N(C6CCC(=O)NC6=O)C7=O)CC5)cc4)nc23)CC1` (stereo not given), in that order: 23.2% and 97.4%.
Turning to `CCN1CCC(Nc2c(Br)cnc3[nH]c(-c4ccc(N5CCN(C(=O)CCCCCCCOc6ccc7c(c6)C(=O)N(C6CCC(=O)NC6=O)C7=O)CC5)cc4)nc23)CC1` (stereo not given), the Activity in experiment [1] and in experiment [2] was 0% in each case.
With `CCN1CCC(Nc2c(Br)cnc3[nH]c(-c4ccc(N5CCN(C(=O)CCCCCNc6ccc7c(c6)C(=O)N(C6CCC(=O)NC6=O)C7=O)CC5)cc4)nc23)CC1` (stereo not given), the Activity was determined as 35.5% in experiment [1] and 87.2% in experiment [2].
In the same order, the values of `CCN1CCC(Nc2c(Br)cnc3[nH]c(-c4ccc(N5CCN(CCCCCCNc6cccc7c6C(=O)N(C6CCC(=O)NC6=O)C7=O)CC5)cc4)nc23)CC1` (stereo not given) are 6.1% and 96.5%.
In the same order, the values of `CCN1CCC(Nc2c(Br)cnc3[nH]c(-c4ccc(N5CCN(C(=O)CNc6ccc7c(c6)C(=O)N(C6CCC(=O)NC6=O)C7=O)CC5)cc4)nc23)CC1` (stereo not given) are 0.8% and 71%.
In the same order, the values of `CCN1CCC(Nc2c(Br)cnc3[nH]c(-c4ccc(N5CCN(CCOCCOCCOCCNc6ccc7c(c6)C(=O)N(C6CCC(=O)NC6=O)C7=O)CC5)cc4)nc23)CC1` (stereo not given) are 0% and 73.5%.
Consider `CCN1CCC(Nc2c(Br)cnc3[nH]c(-c4ccc(N5CCN(C(=O)CCCCCNc6cccc7c6C(=O)N(C6CCC(=O)NC6=O)C7=O)CC5)cc4)nc23)CC1` (stereo not given), for which the Activity in experiment [1] turned out to be 6.2%; in experiment [2] it was 75.8%.
For `CCN1CCC(Nc2c(Br)cnc3[nH]c(-c4ccc(N5CCN(C(=O)COc6ccc7c(c6)C(=O)N(C6CCC(=O)NC6=O)C7=O)CC5)cc4)nc23)CC1` (stereo not given), in that order: 0% and 0%.
For `CCN1CCC(Nc2c(Br)cnc3[nH]c(-c4ccc(N5CCN(CCCCCCNc6ccc7c(c6)C(=O)N(C6CCC(=O)NC6=O)C7=O)CC5)cc4)nc23)CC1` (stereo not given), in that order: 37.6% and 89.9%.
In the same order, the values of `CCN1CCC(Nc2c(Br)cnc3[nH]c(-c4ccc(N5CCN(C(=O)COc6cccc7c6C(=O)N(C6CCC(=O)NC6=O)C7=O)CC5)cc4)nc23)CC1` (stereo not given) are 38% and 88.9%.
Consider `CCN1CCC(Nc2c(Br)cnc3[nH]c(-c4ccc(N5CCN(C(=O)CCCNc6ccc7c(c6)C(=O)N(C6CCC(=O)NC6=O)C7=O)CC5)cc4)nc23)CC1` (stereo not given), for which the Activity in experiment [1] was determined as 11%; in experiment [2], 46.8%.
In the same order, the values of `CCN1CCC(Nc2c(Br)cnc3[nH]c(-c4ccc(N5CCN(CCOCCOCCOCCNc6cccc7c6C(=O)N(C6CCC(=O)NC6=O)C7=O)CC5)cc4)nc23)CC1` (stereo not given) are 30.4% and 93.8%.
In the same order, the values of `CCN1CCC(Nc2c(Br)cnc3[nH]c(-c4ccc(N5CCN(C(=O)CCCCCCCNc6cccc7c6C(=O)N(C6CCC(=O)NC6=O)C7=O)CC5)cc4)nc23)CC1` (stereo not given) are 1.2% and 75.3%.
Regarding `CCN1CCC(Nc2c(Br)cnc3[nH]c(-c4ccc(N5CCN(C(=O)CCCCCCCOc6cccc7c6C(=O)N(C6CCC(=O)NC6=O)C7=O)CC5)cc4)nc23)CC1` (stereo not given), the Activity in experiment [1] amounted to 9.5%; in experiment [2], 0%.
In the case of `CCN1CCC(Nc2c(Br)cnc3[nH]c(-c4ccc(N5CCN(CCNc6cccc7c6C(=O)N(C6CCC(=O)NC6=O)C7=O)CC5)cc4)nc23)CC1` (stereo not given), the Activity in experiment [1] came to 69.7%; in experiment [2], 99.3%.
In the same order, the values of `CCN1CCC(Nc2c(Br)cnc3[nH]c(-c4ccc(N5CCN(C(=O)CCCCCCCCCOc6ccc7c(c6)C(=O)N(C6CCC(=O)NC6=O)C7=O)CC5)cc4)nc23)CC1` (stereo not given) are 0% and 60.5%.
`CCN1CCC(Nc2c(Br)cnc3[nH]c(-c4ccc(N5CCN(CCOCCOCCNc6cccc7c6C(=O)N(C6CCC(=O)NC6=O)C7=O)CC5)cc4)nc23)CC1` (stereo not given): the Activity in experiment [1] turned out to be 11.1%; in experiment [2] it was 89.6%.
`CCN1CCC(Nc2c(Br)cnc3[nH]c(-c4ccc(N5CCN(C(=O)CNc6cccc7c6C(=O)N(C6CCC(=O)NC6=O)C7=O)CC5)cc4)nc23)CC1` (stereo not given): the Activity in experiment [1] is 0%; in experiment [2], 83.3%.
With `CCN1CCC(Nc2c(Br)cnc3[nH]c(-c4ccc(N5CCN(C(=O)CCCCCOc6ccc7c(c6)C(=O)N(C6CCC(=O)NC6=O)C7=O)CC5)cc4)nc23)CC1` (stereo not given), the Activity in experiment [1] and in experiment [2] was 0% each time.
With `CCN1CCC(Nc2c(Br)cnc3[nH]c(-c4ccc(N5CCN(C(=O)CCCCCCCCCNc6cccc7c6C(=O)N(C6CCC(=O)NC6=O)C7=O)CC5)cc4)nc23)CC1` (stereo not given), the Activity in experiment [1] came out at 6.7%; in experiment [2], 57.5%.
For `CCN1CCC(Nc2c(Br)cnc3[nH]c(-c4ccc(N5CCN(C(=O)CCCCCCCCCOc6cccc7c6C(=O)N(C6CCC(=O)NC6=O)C7=O)CC5)cc4)nc23)CC1` (stereo not given), in that order: 38.7% and 99.6%.
In the same order, the values of `CCN1CCC(Nc2c(Br)cnc3[nH]c(-c4ccc(N5CCN(CCNc6ccc7c(c6)C(=O)N(C6CCC(=O)NC6=O)C7=O)CC5)cc4)nc23)CC1` (stereo not given) are 3.2% and 92.7%.
For the molecule `CCN1CCC(Nc2c(Br)cnc3[nH]c(-c4ccc(N5CCN(C(=O)CCCOc6cccc7c6C(=O)N(C6CCC(=O)NC6=O)C7=O)CC5)cc4)nc23)CC1` (stereo not given), the Activity in experiment [1] is 0%; in experiment [2], 50.6%.
Consider `CCN1CCC(Nc2c(Br)cnc3[nH]c(-c4ccc(N5CCN(C(=O)CCCOc6ccc7c(c6)C(=O)N(C6CCC(=O)NC6=O)C7=O)CC5)cc4)nc23)CC1` (stereo not given), for which the Activity amounted to 0% in experiment [1] and 87.3% in experiment [2].
On to `CCN1CCC(Nc2c(Br)cnc3[nH]c(-c4ccc(N5CCN(CCCNc6cccc7c6C(=O)N(C6CCC(=O)NC6=O)C7=O)CC5)cc4)nc23)CC1` (stereo not given), for which the values for the Activity in experiment [1] and in experiment [2] were 76.1% and 99.7%, respectively.
Consider `CCN1CCC(Nc2c(Br)cnc3[nH]c(-c4ccc(N5CCN(C(=O)CCCCCCCCCNc6ccc7c(c6)C(=O)N(C6CCC(=O)NC6=O)C7=O)CC5)cc4)nc23)CC1` (stereo not given), for which the Activity in experiment [1] was found to be 1.6%; in experiment [2], 0%.
On to `CCN1CCC(Nc2c(Br)cnc3[nH]c(-c4ccc(N5CCN(C(=O)CCCNc6cccc7c6C(=O)N(C6CCC(=O)NC6=O)C7=O)CC5)cc4)nc23)CC1` (stereo not given), for which the Activity is 6.6% in experiment [1] and 76% in experiment [2].
